Results from patent US11760744B2, “Fused ring compounds” (Genentech, Inc., priority 2018, dated 2023).
pEC50, pIC50: −log10 of the molar value.

Assays:
K-Ras G12C [1] = biological target: T1, K-Ras G12C (Homo sapiens, UniProt P01116, G12C); assay: K-Ras G12C, SOS1, Raf RBD HTRF assay for inhibition of GTP exchange; format: biochemical; parameters: K-Ras G12C (residues 2-188) and SOS1 (residues 564-1049) had N-terminal 6-His; made in house; host or cells: E. coli; settings: 18 hours preincubation with K-Ras G12C at room temperature; SOS1-mediated GTP exchange
Procedure: K-Ras G12C, SOS1, Raf RBD Homogeneous Time Resolved Fluorescence (HTRF) Assay for Inhibition of GTP Exchange
After 18 hours at room temperature, the SOS1 GTP exchange factor (1.67 nM during exchange, 1.25 nM final) was added to initiate nucleotide exchange to GTP (200 μM during exchange, 150 μM final). The level of GTP exchange was assessed by addition of a Ras binding domain derived from C-Raf and the HTRF detection antibodies Tb-anti-FLAG and D2-anti-his (Cis-Bio) at 50 nM, 1 nM and 12.5 nM, respectively. After 2 hours, the ratio of 665 nm to 615 nm emission with 320 nm excitation was measured on an Envision plate reader (Perkin Elmer).
The final reaction volume was 20 μl in a ProxiPlate-384F Plus (Perkin Elmer), in buffer containing 20 mM HEPES, 150 mM NaCl, 1 mM MgCl2, 0.1% BSA, 0.03% Tween-20 and 1 mM DTT. […] HTRF data are presented below in Table 2.
Target sequence in this assay (P01116 2-188 isoform P01116-2 G12C): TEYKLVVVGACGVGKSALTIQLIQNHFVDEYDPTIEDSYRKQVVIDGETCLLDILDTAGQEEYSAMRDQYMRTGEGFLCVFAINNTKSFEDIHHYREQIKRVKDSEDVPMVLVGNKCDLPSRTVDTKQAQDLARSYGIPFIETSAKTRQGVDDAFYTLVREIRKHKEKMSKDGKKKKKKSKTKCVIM

K-Ras G12C [2] = biological target: T1, K-Ras G12C; assay: Western blot assay for in cell alkylation of K-Ras G12C (HCC1171 cells); format: cell-based; parameters: endogenous in cells; host or cells: HCC1171; settings: 18 hours at 37° C., 7 point dose response
Procedure: Western Blot Assay for in Cell Alkylation of K-Ras G12C
HCC1171 cells were maintained in RPMI1640 supplemented with 10% FBS. Cells were plated in a 96-well plate at 20,000 cells/well and the following day compounds were added to the cells. After 18 hours at 37° C., cells were lysed in RIPA buffer (Sigma R0278) with 0.5% SDS and protease/phosphatase inhibitor cocktail. After through mixing to enable complete lysis, the lysates were cleared by centrifugation before 20 μl was transferred from each well and combined with loading buffer and reducing agent. After heating for 10 minutes at 95° C., 15 μl of each sample was loaded onto a 4-20% Tris-Glycine gel and electrophoresed at 110V for 165 minutes in SDS-PAGE running buffer. Gels were transferred to a nitrocellulose membrane, blocked for 1 hour and stained overnight at 4° C. with primary antibody against K-Ras (polyclonal Proteintech 12063-1-AP). The membrane was then washed thoroughly and counterstained with anti-rabbit IRDye 800CW (LI-COR 926-32211) for one hour at room temperature. After final washes, the membrane was imaged on a LI-COR Odyssey CLx at medium resolution. Alkylated K-Ras was visible by an electrophoretic shift from unmodified K-Ras. To quantify this affect, the LICOR software was used to draw a rectangle over alkylated and unalkylated bands for each well and measured the total fluorescent intensity (FI) in each of these bands. The following formula was then used to calculate % alkylation: FI(alkylated)/(FI(alkylated)+FI(unalkylated))*100 for each well.
A 7 point dose response curve was used to determine the IC50 for each compound. Cell alkylation data are presented below in Table 2.
Target sequence in this assay (P01116 1-188 isoform P01116-2 G12C): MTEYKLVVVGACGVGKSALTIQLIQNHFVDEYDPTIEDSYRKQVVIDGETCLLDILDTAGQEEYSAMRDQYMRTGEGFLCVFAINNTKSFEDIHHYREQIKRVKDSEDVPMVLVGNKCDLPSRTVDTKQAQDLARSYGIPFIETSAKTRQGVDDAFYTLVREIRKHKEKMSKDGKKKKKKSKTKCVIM

| SMILES | pIC50 (K-Ras G12C [1]) | pEC50 (K-Ras G12C [2]) |
| --- | --- | --- |
| C=C(F)C(=O)N1CCN(c2nc(OC[C@@H]3CCCN3C)nc3c2CCC(c2cccc4ccccc24)C3)CC1CC#N (single isomer, unassigned) [Example 47c] | 6.89 | 6.35 |
| CN1CCC[C@H]1COc1nc2c(c(N3CCN(C(=O)/C=C/CF)[C@@H](CC#N)C3)n1)CC[C@H](c1cc(O)cc3ccccc13)C2 (single isomer, unassigned) [Example 62c] | 7.14 | 6.00 |
| COc1ccc(CN(Cc2ccc(OC)cc2)c2cc(C)c(I)c([C@@H]3Cc4nc(OC[C@@H]5CCCN5C)nc(N5CCN(C(=O)OC(C)(C)C)C[C@@H]5C)c4C[C@H]3C)c2F)cc1 (single isomer, unassigned) [Example 14a] | < 4.30 | 6.00 |
| C=C(F)C(=O)N1CCN(c2nc(OC[C@@H]3CCCN3C)nc3c2CC[C@H](c2cc(O)cc4ccccc24)C3)C[C@H]1CC#N (single isomer, unassigned) [Example 61b] | 6.19 | 5.55 |
| C=CC(=O)N1CCN(c2ncnc3c2CC[C@H](c2c(F)c(N)cc(F)c2C(F)(F)F)C3)CC1 (single isomer, unassigned) [Example 13b] | 7.08 | 6.16 |
| C=CC(=O)N1CCN(c2ncnc3c2C[C@H](C)[C@@H](c2nc(N)ccc2C(F)(F)F)C3)CC1 (single isomer, unassigned) [Example 42a] | 5.57 | – |
| CN1CCC[C@H]1COc1nc2c(c(N3CCN(C(=O)/C=C/CF)[C@H](CC#N)C3)n1)CC[C@H](c1cc(O)cc3ccccc13)C2 (single isomer, unassigned) [Example 62b] | 6.74 | 5.54 |
| C=CC(=O)Oc1cc(C2CCc3c(nc(OC[C@@H]4CCCN4C)nc3N3CCN(C(=O)C=C)CC3)C2)c2ccccc2c1 (stereo partly drawn) [Example 50a, 4-(4-(4-acryloylpiperazin-1-yl)-2-(((S)-1-methylpyrrolidin-2-yl)methoxy)-5,6,7,8-tetrahydroquinazolin-7-yl)naphthalen-2-yl acrylate] | 6.80 | 6.77 |
| CN1CCC[C@H]1COc1nc2c(c(N3CCN(C(=O)/C=C/CNC45CC(C4)C5)[C@@H](CC#N)C3)n1)CCC(c1cccc3ccccc13)C2 (stereo partly drawn) [Example 48a, 2-((2S)-1-((E)-4-(bicyclo[1.1.1]pentan-1-ylamino)but-2-enoyl)-4-(2-(((S)-1-methylpyrrolidin-2-yl)methoxy)-7-(naphthalen-1-yl)-5,6,7,8-tetrahydroquinazolin-4-yl)piperazin-2-yl)acetonitrile] | 7.96 | 6.82 |
| C=CC(=O)N1CCN(c2nc(OC[C@@H]3C[C@H](F)CN3C)nc3c2CC[C@@H](c2cc(O)cc4ccccc24)C3)[C@@H](C)C1 (single isomer, unassigned) [Example 30b] | 5.92 | – |
| C=CC(=O)N1CCN(c2nc(OC[C@@H]3C[C@@H](F)CN3C)nc3c2CC[C@@H](c2cc(O)cc4ccccc24)C3)[C@@H](C)C1 (single isomer, unassigned) [Example 31b] | 6.60 | 5.70 |
| C=C(F)C(=O)N1CCN(c2nc(OC[C@@H]3CCCN3C)nc3c2CC(C)C(c2c(F)c(N)cc(C)c2C(F)(F)F)C3)CC1CC#N (single isomer, unassigned) [Example 34a] | 5.05 | < 5.52 |
| C=CC(=O)N1CCN(c2nc(OC[C@@H]3CCCN3C)nc3c2C[C@H](C)[C@@H](c2cccc4c2CCC4)C3)C[C@@H]1CC#N (single isomer, unassigned) [Example 35c] | 7.66 | 7.34 |
| C=CC(=O)N1CCN(c2nc(OC[C@@H]3CCCN3C)nc3c2C[C@H](C)[C@@H](c2nc(N)cc(C)c2C(F)(F)F)C3)[C@@H](C)C1 (single isomer, unassigned) [Example 21a] | 5.96 | 5.64 |
| C=C(F)C(=O)N1CCN(c2nc(OC[C@@H]3CCCN3C)nc3c2CC[C@@H](c2cc(O)cc4ccccc24)C3)C[C@H]1CC#N (single isomer, unassigned) [Example 61d] | 7.55 | 7.96 |
| C=CC(=O)N1CCN(c2ncnc3c2CC[C@H](c2c(C)ccc4c2COC4)C3)CC1 (single isomer, unassigned) [Example 9a] | 5.38 | – |
| C=C(F)C(=O)N1CCN(c2nc(OC[C@@H]3C[C@@H](F)CN3C)nc3c2C[C@H](C)[C@@H](c2c(F)c(N)cc(C)c2C(F)(F)F)C3)C[C@@H]1CC#N (single isomer, unassigned) [Example 38d] | 5.77 | 6.00 |

| SMILES | pIC50 (K-Ras G12C [1]) | pEC50 (K-Ras G12C [2]) |
| --- | --- | --- |
| C=CC(=O)N1CCN(c2nc(OC[C@@H]3CCCN3C)nc3c2C[C@H](C)[C@@H](c2c(C)c(C)cc(N)c2F)C3)[C@@H](C)C1 (single isomer, unassigned) [Example 11a] | 5.89 | – |
| C=CC(=O)N1CCN(c2nc(OCc3cn(C)cn3)nc3c2CCC(c2cc(O)cc4ccccc24)C3)[C@@H](C)C1 (stereo partly drawn) [Example 54a, 1-((3S)-4-(7-(3-hydroxynaphthalen-1-yl)-2-((1-methyl-1H-imidazol-4-yl)methoxy)-5,6,7,8-tetrahydroquinazolin-4-yl)-3-methylpiperazin-1-yl)prop-2-en-1-one] | 6.33 | – |
| C=CC(=O)N1CCN(c2ncnc3c2CC[C@H](c2cccc4c2CCC4)C3)CC1 (single isomer, unassigned) [Example 6a] | 5.64 | – |
| C=CC(=O)N1CCN(c2ncnc3c2CC[C@@H](c2c(F)c(N)cc(C)c2C(F)(F)F)C3)CC1 (single isomer, unassigned) [Example 27b] | 5.52 | – |
| C=C(F)C(=O)N1CCN(c2nc(OC[C@@H]3CCCN3C)nc3c2CCC(c2cccc4ccccc24)C3)CC1CC#N (single isomer, unassigned) [Example 47b] | 5.82 | – |
| C=CC(=O)N1CCN(c2ncnc3c2CC[C@@H](c2c(F)c(N)cc(F)c2C(F)(F)F)C3)CC1 (single isomer, unassigned) [Example 13a] | 5.70 | – |
| C=CC(=O)N1CCN(c2nc(OC[C@@H]3CCCN3C)nc3c2CCCC3)CC1 [Example 45a, 1-[4-[2-[[(2S)-1-methylpyrrolidin-2-yl]methoxy]-5,6,7,8-tetrahydroquinazolin-4-yl]piperazin-1-yl]prop-2-en-1-one] | < 4.30 | – |
| CNC/C=C/C(=O)N1CCN(c2ncnc3c2C[C@H](C)[C@@H](c2c(C)ccc4[nH]ncc24)C3)CC1 (single isomer, unassigned) [Example 19b] | < 4.52 | – |
| C=CC(=O)N1CCN(c2ncnc3c2CC[C@@H](c2c(C)ccc4c2COC4)C3)CC1 (single isomer, unassigned) [Example 9b] | < 4.30 | – |
| C=CC(=O)N1CCN(c2ncnc3c2CC[C@@H](c2cccc4c2CCC4)C3)CC1 (single isomer, unassigned) [Example 6b] | < 4.30 | – |
| C=CC(=O)N1CCN(c2ncnc3c2C[C@H](C)[C@@H](c2cc(CO)ccc2C)C3)CC1 (single isomer, unassigned) [Example 4a] | < 4.30 | – |
| C=CC(=O)N1CCN(c2nc(OC[C@@H]3COC(=O)N3C)nc3c2CC[C@@H](c2cc(O)cc4ccccc24)C3)[C@@H](C)C1 (single isomer, unassigned) [Example 57b] | 4.85 | – |
| C=CC(=O)N1CCN(c2ncnc3c2CC[C@@H](c2c(C)c(C)cc4[nH]cnc24)C3)CC1 (single isomer, unassigned) [Example 10a] | 4.72 | – |
| C=CC(=O)N1CCN(c2ncnc3c2CC[C@@H](c2nc(N)ccc2C(F)(F)F)C3)CC1 (single isomer, unassigned) [Example 46a] | 5.70 | – |
| C=CC(=O)N1CCN(c2nc(OC[C@@H]3C[C@@H](F)CN3C)nc3c2C[C@H](C)[C@@H](c2nc(NC)cc(C)c2C(F)(F)F)C3)[C@@H](C)C1 (single isomer, unassigned) [Example 5a] | < 4.70 | – |
| C=CC(=O)N1CCN(c2nc(OC[C@@H]3C[C@@H](F)CN3C)nc3c2C[C@H](C)[C@@H](c2nc(N)cc(C)c2C2CC2)C3)[C@@H](C)C1 (single isomer, unassigned) [Example 24a] | < 4.30 | – |
| C=CC(=O)N1CCN(c2ncnc3c2C[C@H](C)[C@@H](c2nc(N)cc(C)c2C(F)(F)F)C3)CC1 (single isomer, unassigned) [Example 8a] | 5.46 | – |
